Results: ChEMBL document CHEMBL1201862, “PubChem BioAssay data set” (2004)
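Method: 48-hour compound exposure of cells in 96-well plates, five concentrations, linear interpolation of endpoints. GI50 = concentration required for 50% inhibition of growth.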 Calls of active or inactive are those of the source. No stated cut-off is given here; in the data, active = GI50 up to about 1.1 µM and inactive = higher.

Tests used:
Test in all cases: NCI anticancer screen, dose series, 48 h
A498 = test system: A498
CAKI-1 = test system: CAKI-1
CCRF-CEM = test system: CCRF-CEM
EKVX = test system: EKVX
HL-60 = test system: HL-60
Hs-578T = test system: Hs-578T
IGROV-1 = test system: IGROV-1
LOX IMVI = test system: LOX IMVI
MCF7 = test system: MCF7
MDA-MB-435 = test system: MDA-MB-435
NCI-H23 = test system: NCI-H23
OVCAR-3 = test system: OVCAR-3
OVCAR-8 = test system: OVCAR-8
PC-3 = test system: PC-3
RPMI-8226 = test system: RPMI-8226
SF-295 = test system: SF-295
SK-MEL-28 = test system: SK-MEL-28
UACC-62 = test system: UACC-62
SF-539 = test system: SF-539

| Structure (SMILES) | GI50 (A498) | GI50 (CAKI-1) | GI50 (CCRF-CEM) | GI50 (EKVX) | GI50 (HL-60) | GI50 (Hs-578T) | GI50 (IGROV-1) | GI50 (LOX IMVI) | GI50 (MCF7) | GI50 (MDA-MB-435) | GI50 (NCI-H23) | GI50 (OVCAR-3) | GI50 (OVCAR-8) | GI50 (PC-3) | GI50 (RPMI-8226) | GI50 (SF-295) | GI50 (SK-MEL-28) | GI50 (UACC-62) | GI50 (SF-539) |
| --- | --- | --- | --- | --- | --- | --- | --- | --- | --- | --- | --- | --- | --- | --- | --- | --- | --- | --- | --- |
| CN1C(=O)N/C(=C\c2ccc(S(=O)(=O)NN)cc2)C1=O | > 100 µM (inactive) | > 100 µM (inactive) | > 100 µM (inactive) | > 100 µM (inactive) | > 100 µM (inactive) | > 100 µM (inactive) | > 100 µM (inactive) | > 100 µM (inactive) | > 100 µM (inactive) | > 100 µM (inactive) | > 100 µM (inactive) | > 100 µM (inactive) | > 100 µM (inactive) | > 100 µM (inactive) | > 100 µM (inactive) | > 100 µM (inactive) | > 100 µM (inactive) | > 100 µM (inactive) | – |
| Oc1c(Br)cc(/C=C/c2cccc(/C=C/c3cc(Br)c(O)c(Br)c3)n2)cc1Br | 8.2 µM (inactive) | 11.5 µM (inactive) | – | 14.8 µM (inactive) | 2.03 µM (inactive) | 17.5 µM (inactive) | 13.4 µM (inactive) | 13.7 µM (inactive) | 15.5 µM (inactive) | 13.5 µM (inactive) | – | 14.1 µM (inactive) | 13 µM (inactive) | 7.52 µM (inactive) | 11.5 µM (inactive) | 7.87 µM (inactive) | 12.1 µM (inactive) | 15.7 µM (inactive) | 13.7 µM (inactive) |
| c1c[nH]c(CN2CCOCC2)n1 | > 100 µM (inactive) | > 100 µM (inactive) | > 100 µM (inactive) | > 100 µM (inactive) | > 100 µM (inactive) | > 100 µM (inactive) | > 100 µM (inactive) | > 100 µM (inactive) | > 100 µM (inactive) | > 100 µM (inactive) | > 100 µM (inactive) | > 100 µM (inactive) | > 100 µM (inactive) | > 100 µM (inactive) | > 100 µM (inactive) | > 100 µM (inactive) | > 100 µM (inactive) | > 100 µM (inactive) | > 100 µM (inactive) |
| CC(C)=CCC[C@](C)(O[C@@H]1O[C@H](CO)[C@@H](O)[C@H](O)[C@H]1O)[C@H]1CC[C@]2(C)[C@@H]1[C@H](O)C[C@@H]1[C@@]3(C)CC[C@H](O)C(C)(C)[C@@H]3[C@@H](O[C@@H]3O[C@H](CO)[C@@H](O)[C@H](O)[C@H]3O[C@@H]3O[C@@H](C)[C@H](O)[C@@H](O)[C@H]3O)C[C@]12C.CC(C)=CCC[C@](C)(O[C@@H]1O[C@H](CO)[C@@H](O)[C@H](O)[C@H]1O)[C@H]1CC[C@]2(C)[C@@H]1[C@H](O)C[C@@H]1[C@@]3(C)CC[C@H](O)C(C)(C)[C@@H]3[C@@H](O[C@@H]3O[C@H](CO)[C@@H](O)[C@H](O)[C@H]3O[C@@H]3O[C@H](CO)[C@@H](O)[C@H](O)[C@H]3O)C[C@]12C | > 75 µM (inactive) | > 75 µM (inactive) | > 75 µM (inactive) | > 75 µM (inactive) | > 75 µM (inactive) | 51.3 µM (inactive) | > 75 µM (inactive) | > 75 µM (inactive) | > 75 µM (inactive) | > 75 µM (inactive) | > 75 µM (inactive) | > 75 µM (inactive) | 34.9 µM (inactive) | > 75 µM (inactive) | > 75 µM (inactive) | 60.3 µM (inactive) | > 75 µM (inactive) | > 75 µM (inactive) | > 75 µM (inactive) |
| CCN(CC)CCCNc1c2cc(OC)ccc2nc2cccc([N+](=O)[O-])c12 | 0.0127 µM (active) | 0.21 µM (active) | 0.128 µM (active) | 0.163 µM (active) | 0.158 µM (active) | 0.138 µM (active) | 0.102 µM (active) | 0.024 µM (active) | 0.0333 µM (active) | 0.0995 µM (active) | 0.0746 µM (active) | 0.034 µM (active) | 0.0904 µM (active) | 0.0543 µM (active) | 0.0535 µM (active) | 0.147 µM (active) | 0.231 µM (active) | 0.166 µM (active) | 0.141 µM (active) |
| O=C(C=P(c1ccccc1)(c1ccccc1)c1ccccc1)C12CC3CC(CC(C3)C1)C2 | 18.8 µM (inactive) | 16.1 µM (inactive) | 14.4 µM (inactive) | 15.6 µM (inactive) | 8.75 µM (inactive) | 16.5 µM (inactive) | 16 µM (inactive) | 16.4 µM (inactive) | 17 µM (inactive) | 12.9 µM (inactive) | 16.7 µM (inactive) | 14.9 µM (inactive) | 17.7 µM (inactive) | 11.7 µM (inactive) | 4.06 µM (inactive) | – | 16.8 µM (inactive) | 14.7 µM (inactive) | 20 µM (inactive) |
| CSc1nc(SC)c2ncn(C3CC(Oc4ccc(C)cc4)C(COc4ccc(C)cc4)O3)c2n1 (centres undefined) | > 100 µM (inactive) | > 100 µM (inactive) | > 100 µM (inactive) | > 100 µM (inactive) | > 100 µM (inactive) | > 100 µM (inactive) | > 100 µM (inactive) | > 100 µM (inactive) | > 100 µM (inactive) | > 100 µM (inactive) | > 100 µM (inactive) | > 100 µM (inactive) | > 100 µM (inactive) | > 100 µM (inactive) | 8.71 µM (inactive) | > 100 µM (inactive) | > 100 µM (inactive) | > 100 µM (inactive) | > 100 µM (inactive) |
